Test results published in patent US7396830B2, “Piperazine amidines as antiviral agents” (priority 2005, dated 2008).
pEC50: −log10 of the molar value.

Tested on: HIV-1
Experiment: Single-round infectious HIV-1 luciferase reporter virus infection of HeLa CD4 cells
Assay type: cell-based
Conditions: Human immunodeficiency virus 1, HeLa, 72 h, read-out: EC50 Group from Table 1
Experimental: • Virus production—Human embryonic Kidney cell line, 293T, was propagated in Dulbecco's Modified Eagle Medium (Invitrogen, Carlsbad, Calif.) containing 10% fetal Bovine serum (FBS, Sigma, St. Louis, Mo.). • Virus infection—Human epithelial cell line, HeLa, expressing the HIV-1 receptor CD4 was propagated in Dulbecco's Modified Eagle Medium (Invitrogen, Carlsbad, Calif.) containing 10% fetal Bovine serum (FBS, Sigma, St. Louis , Mo.) and supplemented with 0.2 mg/mL Geneticin (Invitrogen, Carlsbad, Calif.). Virus-Single-round infectious reporter virus was produced by co-transfecting human embryonic Kidney 293 cells with an HIV-1 envelope DNA expression vector and a proviral cDNA containing an envelope deletion mutation and the luciferase reporter gene inserted in place of HIV-1 nef sequences (Chen et al, Ref. 41). Transfections were performed using lipofectAMINE PLUS reagent as described by the manufacturer (Invitrogen, Carlsbad, Calif.). Experiment • 1. HeLa CD4 cells were plated in 96 well plates at a cell density of 1×10^4 cells per well in 100 μl Dulbecco's Modified Eagle Medium containing 10% fetal Bovine serum and incubated overnight. • 2. Compound was added in a 2 μl dimethylsulfoxide solution, so that the final assay concentration would be ≦10 μM. • 3. 100 μl of single-round infectious reporter virus in Dulbecco's Modified Eagle Medium was then added to the plated cells and compound at an approximate multiplicity of infection (MOI) of 0.01, resulting in a final volume of 200 μl per well. • 4. Virally-infected cells were incubated at 37 degrees Celsius, in a CO2 incubator, and harvested 72 h after infection. • 5. Viral infection was monitored by measuring luciferase expression from viral DNA in the infected cells using a luciferase reporter gene assay kit, as described by the manufacturer (Roche Molecular Biochemicals, Indianapolis, Ind.). Infected cell supernatants were removed and 50 μl of lysis buffer was added per well. After 15 minutes, 50 μl of freshly-reconstituted luciferase assay reagent was added per well. Luciferase activity was then quantified by measuring luminescence using a Wallac microbeta scintillation counter. • 6. The percent inhibition for each compound was calculated by quantifying the level of luciferase expression in cells infected in the presence of each compound as a percentage of that observed for cells infected in the absence of compound and subtracting such a determined value from 100. • 7. An EC50 provides a method for comparing the antiviral potency of the compounds of this disclosure. The effective concentration for fifty percent inhibition (EC50) was calculated with the Microsoft Excel Xlfit curve fitting software. For each compound, curves were generated from percent inhibition calculated at 10 different concentrations by using a four paramenter logistic model (model 205). Table 1 is the key for the data in Table 2. Results

SMILES: CC(C)/N=C(\c1ccccc1)N1CCN(C(=O)C(=O)c2c[nH]c3c(-n4ccnn4)ncc(F)c23)CC1 [AM-64]
- pEC50: > 6.30
